How the values were obtained:
Assay type in all cases: physicochemical
[1] = Stability as a function of pH, narrow range (pH 2-3.6, ~10 mM citric acid and glycine buffers, 1 mg/mL); details: Target pH 2.0; 40° C. Storage 4 wk; listed as Cmp. A
Procedure: Accordingly, the stability of the compound was evaluated in the pH range 2-3.6.
Methodology: Buffer solutions containing ˜10 mM each of citric acid and glycine in the pH range 2-3.6 were prepared by titrating 250 mL of a single stock containing both buffer agents with 1N NaOH/1N HCl and removing 50 mL aliquots at predetermined pH values. Solutions at 1 mg/mL were prepared in the buffers by dissolving ˜25 mg of compound in ˜23 mL of a given buffer, adjusting the pH to the target and making up the volume to 25.0 mL in a volumetric flask.
Each of the buffered solutions was filtered through a […] polyether sulfone syringe filter into a volumetric flask previously rinsed with 70% ethanol and dried in a laminar flow hood. Following filtration, each buffered solution was split into 9 aliquots in 5 mL serum vials previously rinsed with 70% ethanol and dried in a laminar flow hood. Filtration and preparation of aliquots were performed in a laminar flow hood. Of the nine aliquots, three aliquots were stored at each 40° C. and 60° C., two aliquots were stored at 25° C. and one aliquot was submitted for T0 testing. Samples were evaluated for pH, assay and related substances at TO and, following 1 week, 2 weeks and 4 weeks of storage at 40° C. and 60° C. Samples stored at 25° C. served as controls to be analyzed if necessary. […]

[2] = pH solubility study (100 mM citric acid, titrated with NaOH, shaken overnight at room temperature, filtered, HPLC); details: for Cmp. A.H2SO4 Concentration: no excess solid, not saturation solubility
Procedure: A pH solubility study was performed to assess the feasibility of formulating a compound having Formula (I) as a simple buffered solution at a reasonable pH for a nasal formulation.
Methodology: A compound having Formula (I) and H2SO4 solution of concentration ˜107 mg/mL in 100 mM citric acid at pH 2.5 was prepared. About 150 μL aliquots of this solution were transferred into 6 separate glass HPLC vials. All the samples, including the solution at pH 2.5, were shaken overnight at room temperature using a gyratory shaker. After shaking, the samples were evaluated visually for the presence of precipitate and were then spin filtered through 0.45 μm syringe tip filters (4 mm diameter) at 3000 rpm for 20 min. The final pH values of the filtrates were measured. The filtrates were then diluted appropriately and analyzed for compound having Formula (I). H2SO4 concentration using the HPLC assay.
Results: The pH values of the samples prior to and after shaking overnight, appearance as well as concentrations of samples are shown in Table 12.

[3] = Drug substance stability (API in closed Type I glass vials at 40° C. and 60° C.)
Procedure: Methodology: Approximately 100 mg of the API (Lot 009M9B058) were stored at each of 40° C. and 60° C. in closed Type I glass vials. Samples were analyzed for appearance and percent purity at T0 and after 1 week, 2 weeks and 4 weeks of storage.
Visually, there were no signs of degradation (i.e. discoloration etc.).

| Structure (SMILES) | Assay [1] | Final pH after Shaking and Filtration ([2]; Target pH 2.5, Initial pH 2.51) | Cmp. A.H2SO4 Concentration ([2]; Target pH 2.5, Initial pH 2.51) [mg/mL] | Final pH after Shaking and Filtration ([2]; Target pH 3.0, Initial pH 3.05) | Cmp. A.H2SO4 Concentration ([2]; Target pH 3.0, Initial pH 3.05) [mg/mL] | Final pH after Shaking and Filtration ([2]; Target pH 3.5, Initial pH 3.51) | Cmp. A.H2SO4 Concentration ([2]; Target pH 3.5, Initial pH 3.51) [mg/mL] | Final pH after Shaking and Filtration ([2]; Target pH 4.0, Initial pH 4.00) | Final pH after Shaking and Filtration ([2]; Target pH 4.5, Initial pH 4.55) | Final pH after Shaking and Filtration ([2]; Target pH 5.0, Initial pH 4.93) | Final pH after Shaking and Filtration ([2]; Target pH 5.5, Initial pH 5.63) | Stability of the API on storage (in words) ([3]; 4 weeks, even at 60° C.) | Purity (%) ([3]; 40° C., T = 1 week) | Purity (%) ([3]; 40° C., T = 2 week) | Purity (%) ([3]; 40° C., T = 4 week) | Purity (%) ([3]; 60° C., T = 1 week) | Purity (%) ([3]; 60° C., T = 2 week) | Purity (%) ([3]; 60° C., T = 4 week) | Purity (%) ([3]; T = 0) |
| --- | --- | --- | --- | --- | --- | --- | --- | --- | --- | --- | --- | --- | --- | --- | --- | --- | --- | --- | --- |
| CCCNc1nc(NCCC)nc(N(C)OC)n1 [Compound A, N-(4,6-Bis-n-propylamino-[1,3,5]triazin-2-yl)-O,N-dimethyl-hydroxylamine] | 0956 |  |  |  |  |  |  |  |  |  |  |  |  |  |  |  |  |  |  |
| CCCNc1nc(NCCC)nc(N(C)OC)n1 [Cmp. A.H2SO4, N-(4,6-Bis-n-propylamino-[1,3,5]triazin-2-yl)-O,N-dimethyl-hydroxylamine] |  | 2.42 | 104.1 | 3.00 | 99.8 | 3.51 | 101.6 | 3.79 | 4.37 | 4.52 | 5.02 | quite stable | 99.92 | 99.90 | 100.00 | 99.76 | 100.00 | 100.00 | 100.00 |

From patent US20230310440A1, “RESPIRATORY STIMULANT NASAL FORMULATIONS” (Enalare Therapeutics Inc., priority 2022, published 2023)
